According to patent US8772274B1, “Anti-cancer compositions and methods” (The Penn State Research Foundation, priority 2008, dated 2014):
Where a name gives a salt, the structure may show the parent alone. Read-outs that look alike come from different tables or passages of the source.

Key:
[1] = test system: HT-1080 fibrosarcoma cells; experiment: MTS cell viability assay, HT-1080; type: cell-based, human; conditions: HT-1080 fibrosarcoma; 24 h; MTS; read-out: Inhibition Cancer Cells IC50, HT-1080 (Table III)
Experimental: (§1) Growth inhibitory effects on cultured cells from human vertical growth phase (VGP) melanoma cell line WM115, Lung adenocarcinoma (A549), fibrosarcoma (HT-1080), prostate adenocarcinoma (PC-3), ovarian carcinoma (OVCAR-3), and breast adenocarcinoma (MDA-MB-231) are plated in 96 well plates at a density of 5×10^3 cells/well in 100 μl media. […] Dose response curves for each compound are generated and the IC50 values (μM) determined using GraphPad Prism software. Each experiment is replicated at least 3 times and the average IC50 (μM) values with standard error represented.

[2] = test system: PC-3 prostate adenocarcinoma cells; experiment: MTS cell viability assay, PC-3; type: cell-based, human; conditions: PC-3 prostate adenocarcinoma; 24 h; MTS; read-out: Inhibition Cancer Cells IC50, PC-3 (Table III)
Experimental: as §1

[3] = test system: HT-29 colorectal adenocarcinoma cells; experiment: MTS cell viability assay, HT-29; type: cell-based
[4] = test system: MDA-MB-231 breast adenocarcinoma cells; experiment: MTS cell viability assay, MDA-MB-231; type: cell-based, human; conditions: MDA-MB-231 breast adenocarcinoma; 24 h; MTS; read-out: Inhibition Cancer Cells IC50, MDA-MB-231 (Table III)
Experimental: as §1

[5] = test system: normal human fibroblast cells (FF2441); experiment: MTS cell viability assay, normal fibroblasts; type: cell-based; conditions: FF2441; 24-72 hours; MTS; read-out: Inhibition of growth IC50, Fibroblast cells (FF2441) (Table II)
Experimental: (§2) 5×10^3 cells per well in 100 μl DMEM-10% FBS are grown in a 96-well plate for 36 or 72 hours, respectively for melanoma (UACC 903, 1205 Lu and WM115) and human fibroblast (FF2441) cell lines and treated with either PBS vehicle or increasing concentrations (3.5-21 μM) of PBIT, PBISe, PEIT or PEISe for 24 hours. Cellular viability compared to control treated cells is measured using the MTS assay (Promega, Madison, Wis.). IC50 (μM) values for each compound in respective cell lines is determined from three independent experiments using GraphPad Prism version 4.01 (GraphPad, San Diego, Calif.), bars, SEM.
Viability of colon adenocarcinoma cells (Caco-2, HT 29, HCT 116, SW 480) and normal fibroblast cells (FF2441) treated with PBIT (1), PBISe (2), PEIT (3) or PEISe (4) is compared. The IC50 value is evaluated by treating with increasing concentrations of PBIT, PEIT, PEISe (10-100 μM) or PBISe (1.6-50 μM) for 24-72 hours and the number of viable cell are quantified using MTS (Promega, Wis.).

[6] = test system: iNOS (total nitrate+nitrite in Caco-2 cells); experiment: Nitrite estimation (nitrate/nitrite colorimetric assay); type: cell-based; conditions: 80 μM, 72 hours
Experimental: Nitrite content in cell culture media is determined using a nitrate/nitrite colorimetric assay kit (Cayman Chemical Company, Ann Arbor, Mich.) essentially as described in Salvucci, O. et al., Cancer Res 2001; 61:318-26. Caco-2 cells (1×10^6) are plated in 60 mm culture dishes in advanced DMEM containing 10% heat treated FBS for 12 hours, growing cells conditioned with phenol-red free DMEM containing 0.5% FBS for an additional 12 hours. Cells are then treated with increasing concentrations of PBIT (40 and 80 μM) or PBISe (2 and 4 μM) dissolved in phenol-red free DMEM (2 ml) containing 0.5% FBS for 72 hours. Culture supernatants are collected and total nitrite (nitrate+nitrite) measured by incubating 80 μL supernatant with enzyme cofactor mixture (10 μL) and nitrate reductase (10 μL) for 2 hours. Total nitrite is measured by the addition of Griess reagent-I and II (50 μL each). A nitrate standard curve (5-35 μM) is simultaneously prepared. Total nitrite present in media alone is subtracted from all experimental values and represented as micromolar nitrite produced following each treatment.

[7] = test system: A549 lung adenocarcinoma cells; experiment: MTS cell viability assay, A549; type: cell-based, human; conditions: A549 lung carcinoma; 24 h; MTS; read-out: Inhibition Cancer Cells IC50, A549 (Table III)
Experimental: as §1

WM115 melanoma cell line = experiment: MTS cell viability assay, WM115
Experimental: as §2
Growth inhibitory effects on cultured cells from human vertical growth phase (VGP) melanoma cell line WM115, Lung adenocarcinoma (A549), fibrosarcoma (HT-1080), prostate adenocarcinoma (PC-3), ovarian carcinoma (OVCAR-3), and breast adenocarcinoma (MDA-MB-231) are plated in 96 well plates at a density of 5×10^3 cells/well in 100 μl media. The cells are treated 36 hours later with PBISe (0.19-100 μM), PBIT (10-100 μM), PEIT 10-100 μM), or PEISe (10-100 μM) for 24 h and cell viability measured using MTS assay. Dose response curves for each compound are generated and the IC50 values (μM) determined using GraphPad Prism software. Each experiment is replicated at least 3 times and the average IC50 (μM) values with standard error represented.

[8] = test system: PI3 kinase/Akt3 and MAP kinase signaling in UACC 903 cells; experiment: Western blot analysis of melanoma cell lysates; type: cell-based; conditions: melanoma cells
Experimental: Melanoma cell line UACC 903 cells (1×10^6) are treated with increasing concentrations (7-21 μM) of PBIT and PBISe for 24 hours and cell lysates examined by Western blot analysis Cell lysates are harvested by addition of lysis buffer containing 50 mM HEPES (pH 7.5), 150 mM NaCl, 10 mM EDTA, 10% glycerol, 1% Triton X-100, 1 mM sodium orthovanadate, 0.1 mM sodium molybdate, 1 mM phenylmethylsulfonyl fluoride, 20 μg/ml aprotinin, and 5 μg/ml leupeptin. Whole cell lysates are centrifuged (≧10,000×g) for 10 minutes at 4° C. to remove cell debris. Protein concentrations are quantitated using the BCA assay (Pierce, Rockford, Ill.), and 30 μg of lysate loaded per lane onto NuPAGE Gels (Life Technologies, Carlsbad, Calif.). Following electrophoresis, samples are transferred to polyvinylidene difluoride membrane (Pall Corporation, Pensacola, Fla.). Blots are probed with antibodies to PRAS40 and phosphorylated PRAS40 (Thr246) (Invitrogen, Carlsbad, Calif.); antibodies to iNOS, cyclin D1, p27, p21, Erk2, α-enolase and secondary antibodies conjugated with horseradish peroxidase from Santa Cruz Biotechnology (Santa Cruz, Calif.); and antibodies to Akt3, phosphorylated-Akt (Ser473), phosphorylated-Erk 1/2 (Thr202/Tyr204), caspase-3 and cleaved PARP from Cell Signaling Technology (Danvers, Mass.). Immunoblots are developed using ECL (Pierce, Rockford, Ill.).

[9] = Toxicity of topical application in vivo
Experimental: Blood collected from the control and experimental animals, at the end of treatment (day 29), are analyzed for SGOT, SGPT (representing liver and cardiac toxicity) and alkaline phosphatase (for kidney and cardiac toxicity). Additionally, concentrations of metabolites (glucose, creatinine, urea nitrogen and total protein) in serum are also determined.

[10] = test system: Caco-2 colon adenocarcinoma cells; experiment: MTS cell viability assay, Caco-2; conditions: MTS
Experimental: In vitro inhibitory efficacy is measured using 3-(4,5-dimethylthiazol-2-yl)-5-(3-carboxymethoxyphenyl)-2-(4-sulfophenyl)-2H-tetrazolium (MTS) assay (Promega, Madison, Wis.). […] Cells are treated with either vehicle control, PBS, PBIT (40-120 μM) or PBISe (2.4-10 μM) for 72 h. The percentages of viable cells compared to control PBS treated cells are determined using MTS assay and IC50 values calculated using GraphPad Prism version 4.01 (GraphPad software, San Diego, Calif.). An IC50 value for each compound is determined by at least three independent experiments and represented with a standard error.
(§3) The IC50 value is evaluated by treating with increasing concentrations of PBIT, PEIT, PEISe (10-100 μM) or PBISe (1.6-50 μM) for 24-72 hours and the number of viable cell are quantified using MTS (Promega, Wis.).

[11] = test system: colon adenocarcinoma cells (Caco-2, HT 29, HCT 116, SW 480); experiment: MTS viability, four colon cancer cell lines (summary); type: cell-based; conditions: Caco-2, HT 29, HCT 116, SW 480; 24-72 hours; read-out: IC50 range, four colon cancer cell lines
Experimental: as §3

[12] = test system: A549, Caco-2, HT-1080, PC-3, OVCAR-3, MDA-MB-231, WM115; experiment: MTS viability, all cancer cell lines tested (summary); type: cell-based, human; conditions: Table III; read-out: concentration decreasing cell viability by 50% (IC50), cancer cell lines of Table III
Experimental: as §1

[13] = test system: 1205Lu melanoma cell line; experiment: MTS cell viability assay, 1205Lu; type: cell-based; conditions: read-out: IC50, 1205Lu (Table I)
Experimental: (§4) Cellular viability compared to control treated cells is measured using the MTS assay (Promega, Madison, Wis.).

[14] = test system: HCT-116 colorectal adenocarcinoma cells; experiment: MTS cell viability assay, HCT-116; type: cell-based
[15] = test system: OVCAR-3 ovarian carcinoma cells; experiment: MTS cell viability assay, OVCAR-3; type: cell-based, human; conditions: OVCAR-3 ovarian carcinoma; 24 h; MTS; read-out: Inhibition Cancer Cells IC50, OVCAR-3 (Table III)
Experimental: as §1

[16] = test system: UACC 903 melanoma cell line; experiment: MTS cell viability assay, UACC 903; type: cell-based; conditions: read-out: IC50, UACC 903 (Table I)
Experimental: as §4

[17] = test system: SW-480 colorectal adenocarcinoma cells; experiment: MTS cell viability assay, SW-480; type: cell-based; conditions: Homo sapiens, SW480, read-out: Inhibition of growth IC50, last Colorectal adenocarcinoma row (Table II)
[18] = read-out: Inhibition of growth IC50, Caco-2 (Table II), Caco-2, 24-72 hours

In the case of N=C(N)[Se]CCc1ccccc1 (as salt: hydrobromid) [PEISe, s-2-phenylethylisoselenourea hydrobromide], the melting point is reported as 140 to 142 °C.
With Br.Br.N=C(N)SCCc1ccc(CCSC(=N)N)cc1 [PBIT, s,s′-1,4-phenylene-bis(1,2-ethanediyl)bis-isothiourea dihydrobromide, reference compound] the IC50 [1] was greater than 100 µM, the IC50 [2] was greater than 100 µM and the IC50 ([3]; HT-29, 24-72 hours, MTS, read-out: Inhibition of growth IC50, HT-29 (Table II)) was greater than 100 µM. For the same molecule, the IC50 [4] was greater than 100 µM, the IC50 [5] was greater than 100 µM and the “total nitrate+nitrite levels compared to control PBS treated cells” value [6] was “significantly reduces”. For the same molecule, the IC50 [7] was greater than 100 µM, the IC50 (WM115 melanoma cell line; read-out: IC50, WM115 (Table I), WM115 melanoma, 24 hours treatment, MTS) was greater than 100 µM and the IC50 (WM115 melanoma cell line; read-out: Inhibition Cancer Cells IC50, WM115 (Table III), WM115 melanoma, 24 h, MTS) was greater than 100 µM. The iNOS expression ([8]; FIG. 4B) was “elevates”, the “cyclin D1 levels” value ([8]; FIG. 4C) was “does not alter” and the “serum enzyme and metabolite levels, topical application” value ([9]; day 29, SGOT, SGPT, alkaline phosphatase, glucose, creatinine, urea nitrogen, total protein) was “no significant differences”. For the same molecule, the “body weight, topical application” value ([9]; topical every day, 29 days) was “no detectable differences”, the IC50 ([10]; read-out: Inhibition Cancer Cells IC50, Caco-2 (Table III), Caco-2 colorectal adenocarcinoma) was 59.4 ± 3.8 µM and the IC50 [10, 18] was 59.4 ± 3.83 µM. The IC50 [11] was 59 to 100 µM, the IC50 [12] was greater than 100 µM and the IC50 ([13]; 1205Lu melanoma, 24 hours treatment, MTS) was greater than 100 µM. The IC50 ([14]; HCT-116, 24-72 hours, MTS, read-out: Inhibition of growth IC50, HCT-116 (Table II)) was greater than 100 µM, the IC50 [15] was greater than 100 µM and the IC50 ([16]; UACC 903 melanoma, 24 hours treatment, MTS) was greater than 100 µM.
Molecule N=C(N)[Se]CCc1ccccc1 [PEISe, s-2-phenylethylisoselenourea hydrobromide] has an IC50 ([3]; Homo sapiens, HT-29, read-out: Inhibition of growth IC50, HT-29 (Table II)) of 21.9 ± 2.1 µM, an IC50 [17] greater than 100 µM and an IC50 (WM115 melanoma cell line; Homo sapiens, WM-115, 24 h, read-out: IC50, WM115 (Table I)) of roughly 80 µM. The IC50 [10, 18] was 16 ± 2 µM, the IC50 ([13]; Homo sapiens, 1205Lu, 24 h) was greater than 100 µM and the IC50 ([14]; Homo sapiens, HCT-116, read-out: Inhibition of growth IC50, HCT-116 (Table II)) was greater than 100 µM. It also gave an IC50 ([16]; Homo sapiens, UACC-903, 24 h) greater than 100 µM.
